From patent publication US20200071351A1, “TACCALONOLIDE MICROTUBULE STABILIZERS” (THE BOARD OF REGENTS OF THE UNIVERSITY OF TEXAS SYSTEM, priority 2016, published 2020)
Like-named read-outs stand apart in the source and are kept apart here.

Tested on: HeLa cells
Experiment: Inhibition of cellular proliferation, SRB assay, HeLa cells
Type: cell-based
Conditions: for activity at concentrations as high as 30,000 nM: up to 30,000 nM
Protocol: The ability of the compounds to initiate cytotoxicity was also determined. […] The determination of IC50 values was performed on taccalonolide material after NMR analysis and subsequent lyophilization. Ethanol or DMSO was used as the vehicle for all cellular studies.
The antiproliferative potencies of the taccalonolides were evaluated in HeLa cells using the SRB assay.

[1] = Homo sapiens, HeLa, HeLa cells, SRB assay, parent taccalonolide, read-out: IC50
[2] = HeLa cells, SRB assay, parent taccalonolide, read-out: IC50

CC(=O)O[C@@H]1[C@H]2[C@@H]3[C@@H](OC(C)=O)C(=O)[C@@]4(O)C[C@@H]5O[C@@H]5[C@H](OC(C)=O)[C@]4(C)[C@H]3C[C@H](OC(C)=O)[C@]2(C)[C@@H]2[C@@H]1[C@]1(C)C(=C[C@H]2C)OC(=O)[C@@]1(C)O [Taccalonolide R, reference compound] was tested, and the IC50 [1] was 13.1 µM and the IC50 (Homo sapiens, HeLa, read-out: IC50) was 13 µM.
Work on CC(=O)O[C@H]1C[C@H]2[C@H]([C@@H]3[C@@H](O)[C@@H]4[C@H]([C@H](C)C=C5OC(=O)[C@@](C)(O)[C@@]54C)[C@]31C)[C@@H](O)C(=O)[C@H]1C[C@@H]3O[C@@H]3[C@H](O)[C@@]12C [Taccalonolide AN] yielded an IC50 [2] of 1 µM.
“5α-hydroxy-taccalonolide A [Taccalonolide Z]” gave an IC50 [2] of 0.12 µM.
For CC(=O)O[C@H]1[C@@H]2[C@H]([C@H](C)C=C3OC(=O)[C@@](C)(O)[C@@]32C)[C@]2(C)[C@@H]1C1=C(O)C(=O)[C@H]3C[C@@H]4O[C@@H]4[C@H](OC(C)=O)[C@]3(C)[C@H]1[C@H](OC(C)=O)[C@@H]2OC(C)=O [Taccalonolide H2], the “more potent than taccalonolide A” value (HeLa IC50 ratio) was 7.4 fold and the IC50 [2] was 0.73 µM.
For CC(=O)O[C@@H]1[C@H]2[C@@H]3[C@@H](OC(C)=O)C(=O)[C@@]4(O)C[C@@H]5O[C@@H]5[C@H](OC(=O)CC(C)C)[C@]4(C)[C@H]3C[C@H](OC(C)=O)[C@]2(C)[C@@H]2[C@@H]1[C@]1(C)C(=C[C@H]2C)OC(=O)[C@@]1(C)O [Taccalonolide T, reference compound], the IC50 [1] was 0.335 µM.
CC(=O)O[C@@H]1[C@H]2[C@@H]3C(=O)C(O)=C4C[C@@H]5O[C@@H]5[C@H](OC(C)=O)[C@]4(C)[C@H]3[C@H](OC(C)=O)[C@H](OC(C)=O)[C@]2(C)[C@@H]2[C@@H]1[C@]1(C)C(=C[C@H]2C)OC(=O)[C@@]1(C)O [Taccalonolide AD] gave an IC50 [2] of 3.48 µM.
For CC(=O)O[C@@H]1[C@H]2[C@H]3[C@H]([C@H](OC(C)=O)[C@H](OC(C)=O)[C@]2(C)[C@@H]2[C@@H]1[C@]1(C)C(=C[C@H]2C)OC(=O)[C@@]1(C)O)[C@]1(C)[C@H](C[C@@H]2O[C@@H]2[C@@H]1OC(C)=O)C(=O)[C@@H]3O [Taccalonolide A, reference compound], the IC50 [1] was 5.38 µM.
Molecule Taccalonolide AL has an IC50 [2] of 18 µM.
Taccalonolide AG gave an IC50 [2] of 0.032 µM.
CC(=O)O[C@H]1[C@H]2[C@H]([C@@H]3[C@@H](O)[C@@H]4[C@H]([C@H](C)C=C5OC(=O)[C@@](C)(O)[C@@]54C)[C@@]3(C)[C@H]1OC(C)=O)[C@@H](O)C(=O)[C@@]1(O)C[C@@H]3O[C@@H]3[C@H](OC(C)=O)[C@]21C [Taccalonolide AB] showed an IC50 [1] of 2.77 µM.
CC(=O)O[C@H]1C[C@H]2[C@H]([C@@H]3[C@@H](O)[C@@H]4[C@H]([C@H](C)C=C5OC(=O)[C@@](C)(O)[C@@]54C)[C@]31C)[C@@H](O)C(=O)[C@@]1(O)C[C@@H]3O[C@@H]3[C@H](OC(=O)CC(C)C)[C@]21C [Taccalonolide AM] showed an IC50 [2] of 1.2 µM.
CC(=O)O[C@H]1C[C@H]2[C@H]([C@@H]3[C@H]4OC(=O)[C@@](C)(O)[C@@]5(C)C(=O)C[C@@H](C)[C@@H]([C@@H]45)[C@]31C)[C@@H](O)C(=O)[C@H]1C[C@@H]3O[C@@H]3[C@H](OC(C)=O)[C@@]12C [Taccalonolide AK] was tested, and the IC50 [2] was greater than 30 µM and the “activity at concentrations as high as 30,000 nM” value (shortened to “activity … as 30,000 nM”) (HeLa cells) was “no activity”.
In the case of CC(=O)O[C@@H]1[C@H]2[C@H]3[C@H]([C@H](OC(C)=O)[C@H](OC(C)=O)[C@]2(C)[C@@H]2[C@@H]1[C@]1(C)C(=C[C@H]2C)OC(=O)[C@@]1(C)O)[C@@]1(C)[C@@H](OC(C)=O)[C@H]2O[C@H]2C[C@]1(O)C(=O)[C@@H]3OC(C)=O [Taccalonolide AA], the IC50 [1] is reported as 0.0323 µM.
With CC(=O)O[C@@H]1[C@H]2[C@H]3C([C@H](OC(C)=O)[C@H](OC(C)=O)[C@]2(C)[C@@H]2[C@@H]1[C@]1(C)C(=C[C@@]2(C)OO)OC(=O)[C@@]1(C)O)[C@]1(C)[C@H](C[C@@H]2O[C@@H]2[C@@H]1OC(C)=O)C(=O)[C@@H]3O (stereo partly shown) [Taccalonolide AC] the “activity at concentrations as high as 50,000 nM” value (HeLa cells, up to 50,000 nM) was “no activity”.
CC(=O)O[C@@H]1[C@H]2[C@@H]3[C@@H](O)C(=O)[C@H]4C[C@@H]5O[C@@H]5[C@H](OC(=O)C(C)C)[C@]4(C)[C@H]3C[C@H](OC(C)=O)[C@]2(C)[C@@H]2[C@@H]1[C@]1(C)C(=C[C@H]2C)OC(=O)[C@@]1(C)O [Taccalonolide S, reference compound] gave an IC50 [1] of 0.009 µM.
CC(=O)O[C@H]1C[C@H]2[C@H]([C@@H]3[C@@H](O)[C@@H]4[C@H]([C@H](C)C=C5OC(=O)[C@@](C)(O)[C@@]54C)[C@]31C)[C@@H](O)C(=O)[C@H]1C[C@@H]3O[C@@H]3[C@H](OC(C)=O)[C@@]12C [Taccalonolide N, reference compound] gave an IC50 [1] of 8.5 µM.
With Taccalonolide AS the IC50 [2] was greater than 10 µM and the “activity … as 30,000 nM” value (HeLa cells) was “little to no activity”.
CC(=O)O[C@H]1C[C@H]2[C@H]([C@@H]3[C@@H](O)[C@@H]4[C@H]([C@H](C)[C@@H]5O[C@@]56OC(=O)[C@@](C)(O)[C@]46C)[C@]31C)[C@@H](O)C(=O)[C@H]1C[C@@H]3O[C@@H]3[C@H](OC(C)=O)[C@@]12C [N-epo] was tested, and the IC50 (HeLa cells, SRB assay, C22-C23 epoxide of the taccalonolide in the same line, read-out: Corresponding Epoxide IC50) was 0.011 µM.
Taccalonolide AH gave an IC50 [2] of 0.158 µM.
Work on CC(=O)O[C@H]1[C@H]2[C@H]([C@@H]3[C@@H](O)[C@@H]4[C@H]([C@H](C)C=C5OC(=O)[C@@](C)(O)[C@@]54C)[C@@]3(C)[C@H]1OC(C)=O)[C@@H](O)C(=O)[C@H]1C[C@@H]3O[C@@H]3[C@H](OC(C)=O)[C@]21C [Taccalonolide B, reference compound] yielded an IC50 [1] of 3.12 µM.
CC(=O)O[C@@H]1[C@H]2[C@@H]3[C@@H](O)C(=O)[C@H]4C[C@@H]5O[C@@H]5[C@H](OC(C)=O)[C@]4(C)[C@H]3C[C@H](OC(C)=O)[C@]2(C)[C@@H]2[C@@H]1[C@]1(C)C(=C[C@H]2C)OC(=O)[C@@]1(C)O [Taccalonolide E, reference compound] showed an IC50 [1] of 39.5 µM.
In the case of CC(=O)O[C@@H]1[C@H]2[C@H]3[C@H]([C@H](OC(C)=O)[C@H](OC(C)=O)[C@]2(C)[C@@H]2[C@@H]1[C@]1(C)C(=C[C@H]2C)OC(=O)[C@@]1(C)O)[C@]1(C)[C@H](C[C@@H]2O[C@@H]2[C@@H]1OC(C)=O)C(=O)C3(O)O [Taccalonolide AE], the IC50 [2] is reported as 5.01 µM.
In the case of Taccalonolide AR, the IC50 [2] is reported as greater than 30 µM and the “activity … as 30,000 nM” value (HeLa cells) is reported as “little to no activity”.
For Taccalonolide AP, the IC50 [2] was greater than 30 µM.
In the case of CC(=O)O[C@H]1[C@H]2[C@H]([C@@H]3[C@H]4OC(=O)[C@@](C)(O)[C@@]5(C)C(=O)C[C@@H](C)[C@@H]([C@@H]45)[C@@]3(C)[C@H]1OC(C)=O)[C@@H](O)C(=O)[C@H]1C[C@@H]3O[C@@H]3[C@H](OC(C)=O)[C@]21C [Taccalonolide AO], the IC50 [2] is reported as greater than 30 µM and the “activity … as 30,000 nM” value (HeLa cells) is reported as “no activity”.
With CC(=O)O[C@H]1[C@H]2[C@@H](C(=O)[C@H](O)[C@H]3C[C@@H]4O[C@@H]4[C@H](OC(C)=O)[C@]23C)[C@@H]2[C@@H](O)[C@@H]3[C@H]([C@H](C)C=C4OC(=O)[C@@](C)(O)[C@@]43C)[C@@]2(C)[C@H]1OC(C)=O [Taccalonolide I, reference compound] the IC50 [1] was greater than 10 µM.
In the case of Taccalonolide AQ, the IC50 [2] is reported as greater than 30 µM and the “activity … as 30,000 nM” value (HeLa cells) is reported as “little to no activity”.
